# In patent US11214594B2, “Antimicrobial peptide having synergistic antibacterial effect with antibiotics on multidrug resistant bacteria, and use thereof” (priority 2016, dated 2022):
# Where a SMILES comes first, the peptide text is derived from it. [ ]: non-standard residue; d: D form.
# How the values were obtained:
# S. epidermidis = assay: microbe, parasite or virus in culture; format: cell-based, Staphylococcus epidermidis
# Procedure, shortened: (§1)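 MIC read-out = lowest peptide level with no bacterial proliferation. Strains diluted in MH medium to 2×10^6 CFU; peptide twofold serial dilutions in MH added 1:1 in microtiter wells.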
# MDRAB 12036 = format: cell-based, Acinetobacter baumannii; conditions: MDRAB 12036; agent alone
# Procedure, shortened: as §1
# MRSA 3114 = format: cell-based, Staphylococcus aureus; conditions: MRSA 3114; agent alone
# Procedure, shortened: as §1
# MRSA 3126 = format: cell-based, Staphylococcus aureus; conditions: MRSA 3126; agent alone
# Procedure, shortened: as §1
# MDRST 8007 = assay: Minimal inhibitory concentration (MIC), single agent; format: cell-based, Salmonella typhimurium; conditions: agent alone
# Procedure, shortened: as §1
# MDREC 1238 = format: cell-based, Escherichia coli; conditions: MDREC 1238; agent alone
# Procedure, shortened: as §1
# S. aureus = assay: microbe, parasite or virus in culture; format: cell-based, Staphylococcus aureus
# Procedure, shortened: as §1
# MDREC 1229 [1] = assay: microbe, parasite or virus in culture; format: cell-based, Escherichia coli; conditions: MDREC 1229
# Procedure, shortened: as §1
# E. coli [2] = assay: microbe, parasite or virus in culture; format: cell-based, Escherichia coli; conditions: 16 h
# Procedure, shortened: as §1
# P. aeruginosa = assay: microbe, parasite or virus in culture; format: cell-based, Pseudomonas aeruginosa
# Procedure, shortened: as §1
# E. coli [3] = assay: MIC of antibiotic during combined treatment with antimicrobial peptide; format: cell-based, Escherichia coli; conditions: for Antibiotic MIC, Erythromycin / Antibiotic MIC, Linezolid / Antibiotic MIC, Vancomycin: E. coli
# Procedure, shortened: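 Using MH broth, we determined combination MICs by titrating the antibiotic into wells and then repeating under the reverse dilution scheme.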
# A. baumannii = assay: MIC of antimicrobial peptide during combined treatment with antibiotic; format: cell-based, Acinetobacter baumannii
# Procedure, shortened: (§2)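 Broth microdilution in MH medium; strains were diluted to 2×10^6 CFU per ml before plating. Peptide was serially diluted stepwise at 2:1 starting from its MIC, and MH-diluted antibiotic was then added to determine MIC. The reversed arrangement was also tested.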
# MDRAB 12035 = assay: as above; format: cell-based, Acinetobacter baumannii
# Procedure, shortened: as §2
# MDRST 8009 = format: cell-based, Salmonella typhimurium; conditions: agent alone
# Procedure, shortened: as §1
# MDREC 1229 [4] = assay: MIC of antibiotic during combined treatment with antimicrobial peptide; format: cell-based, Escherichia coli
# Procedure, shortened: as §2
# S. typhimurium = assay: microbe, parasite or virus in culture; format: cell-based, Salmonella typhimurium
# Procedure, shortened: as §1
# [5] = erythromycin 4 μg/ml (Conc./MIC 1/8)
# [6] = erythromycin 8 μg/ml (Conc./MIC 1/4)
# [7] = erythromycin 16 μg/ml (Conc./MIC 1/2)
# [8] = erythromycin 32 μg/ml (Conc./MIC 1)
# [9] = vancomycin 512 μg/ml (Conc./MIC 1/2)
# [10] = vancomycin 1024 μg/ml (Conc./MIC 1)
# [11] = peptide treatment concentration 1 μg/ml
# [12] = peptide treatment concentration 2 μg/ml
# [13] = peptide treatment concentration 4 μg/ml
# [14] = peptide treatment concentration 6 μg/ml
# [15] = peptide treatment concentration 8 μg/ml
# [16] = peptide treatment concentration 16 μg/ml
# [17] = peptide treatment concentration 32 μg/ml
# [18] = peptide treatment concentration 64 μg/ml
smiles,measurement,setting,value
"CC[C@H](C)[C@H](NC(=O)[C@H](CCCCN)NC(=O)[C@H](Cc1c[nH]c2ccccc12)NC(=O)[C@@H](N)CCCNC(=N)N)C(=O)N[C@@H](Cc1ccccc1)C(=O)N[C@@H](CCCCN)C(=O)N[C@@H](CCCCN)C(=O)N[C@H](C(=O)N[C@H](CC(C)C)C(=O)N[C@@H](CCCCN)C(=O)N[C@@H](CC(C)C)C(=O)N[C@@H](CC(C)C)C(=O)N[C@@H](Cc1c[nH]cn1)C(=O)N[C@@H](CCCCN)C(=O)N[C@@H](Cc1ccccc1)C(=O)N[C@@H](CCCCN)C(=O)N[C@@H](CCCCN)C(=O)N[C@@H](Cc1ccccc1)C(N)=O)[C@@H](C)CC [PapMA-21, RWK IFK KIl KLL HKF KKF-NH2] (H-RWKIFKKI[dL]KLLHKFKKF-NH2; N-terminus assumed)",Minimal inhibitory concentration MIC,S. epidermidis,>128 µg/mL
same,Minimal inhibitory concentration MIC,MDRAB 12036,32 µg/mL
same,Minimal inhibitory concentration MIC,MRSA 3114,>128 µg/mL
same,Minimal inhibitory concentration MIC,MRSA 3126,>128 µg/mL
same,Minimal inhibitory concentration MIC,MDRST 8007,64 µg/mL
same,Minimal inhibitory concentration MIC,MDREC 1238,32 µg/mL
same,Minimal inhibitory concentration MIC,S. aureus,>128 µg/mL
same,Minimal inhibitory concentration MIC,MDREC 1229 [1]; agent alone,32 µg/mL
same,"Peptide MIC, peptide alone","MDREC 1229 [1]; peptide alone, no antibiotic",32 µg/mL
same,Minimal inhibitory concentration MIC,E. coli [2],32 µg/mL
same,Minimal inhibitory concentration MIC,P. aeruginosa,32 µg/mL
same,Synergistic effect of antibacterial activity with existing antibiotics compared with PapMA-1,E. coli [3]; E. coli and MDREC1229,level similar to that of the PapMA-1 peptide
same,"Antibiotic MIC, Erythromycin",E. coli [3]; erythromycin combined with peptide at 1 μg/ml,64 µg/mL
same,"Antibiotic MIC, Erythromycin",E. coli [3]; erythromycin combined with peptide at 2 μg/ml,32 µg/mL
same,"Antibiotic MIC, Erythromycin",E. coli [3]; erythromycin combined with peptide at 4 μg/ml,8 µg/mL
same,"Antibiotic MIC, Erythromycin",E. coli [3]; erythromycin combined with peptide at 6 μg/ml,2 µg/mL
same,"Antibiotic MIC, Erythromycin",E. coli [3]; erythromycin combined with peptide at 8 μg/ml,1 µg/mL
same,"Antibiotic MIC, Erythromycin",E. coli [3]; erythromycin combined with peptide at 16 μg/ml,0.25 µg/mL
same,"Antibiotic MIC, Erythromycin",E. coli [3]; erythromycin combined with peptide at 32 μg/ml,0 µg/mL
same,"Antibiotic MIC, Erythromycin",E. coli [3]; erythromycin combined with peptide at 64 μg/ml,0 µg/mL
same,"Antibiotic MIC, Linezolid",E. coli [3]; linezolid combined with peptide at 1 μg/ml,>128 µg/mL
same,"Antibiotic MIC, Linezolid",E. coli [3]; linezolid combined with peptide at 2 μg/ml,128 µg/mL
same,"Antibiotic MIC, Linezolid",E. coli [3]; linezolid combined with peptide at 4 μg/ml,64 µg/mL
same,"Antibiotic MIC, Linezolid",E. coli [3]; linezolid combined with peptide at 6 μg/ml,32 µg/mL
same,"Antibiotic MIC, Linezolid",E. coli [3]; linezolid combined with peptide at 8 μg/ml,16 µg/mL
same,"Antibiotic MIC, Linezolid",E. coli [3]; linezolid combined with peptide at 16 μg/ml,8 µg/mL
same,"Antibiotic MIC, Linezolid",E. coli [3]; linezolid combined with peptide at 32 μg/ml,0 µg/mL
same,"Antibiotic MIC, Linezolid",E. coli [3]; linezolid combined with peptide at 64 μg/ml,0 µg/mL
same,"Antibiotic MIC, Vancomycin",E. coli [3]; vancomycin combined with peptide at 1 μg/ml,>128 µg/mL
same,"Antibiotic MIC, Vancomycin",E. coli [3]; vancomycin combined with peptide at 2 μg/ml,>128 µg/mL
same,"Antibiotic MIC, Vancomycin",E. coli [3]; vancomycin combined with peptide at 4 μg/ml,>128 µg/mL
same,"Antibiotic MIC, Vancomycin",E. coli [3]; vancomycin combined with peptide at 6 μg/ml,64 µg/mL
same,"Antibiotic MIC, Vancomycin",E. coli [3]; vancomycin combined with peptide at 8 μg/ml,32 µg/mL
same,"Antibiotic MIC, Vancomycin",E. coli [3]; vancomycin combined with peptide at 16 μg/ml,8 µg/mL
same,"Antibiotic MIC, Vancomycin",E. coli [3]; vancomycin combined with peptide at 32 μg/ml,0 µg/mL
same,"Antibiotic MIC, Vancomycin",E. coli [3]; vancomycin combined with peptide at 64 μg/ml,0 µg/mL
same,Peptide MIC during treatment with erythromycin,A. baumannii; [5],8 µg/mL
same,Peptide MIC during treatment with erythromycin,A. baumannii; [6],4 µg/mL
same,Peptide MIC during treatment with erythromycin,A. baumannii; [7],2 µg/mL
same,Peptide MIC during treatment with erythromycin,A. baumannii; [8],0 µg/mL
same,Peptide MIC during treatment with linezolid,A. baumannii; linezolid 32 μg/ml (Conc./MIC 1/8),4 µg/mL
same,Peptide MIC during treatment with linezolid,A. baumannii; linezolid 64 μg/ml (Conc./MIC 1/4),4 µg/mL
same,Peptide MIC during treatment with linezolid,A. baumannii; linezolid […] (Conc./MIC 1),0 µg/mL
same,Peptide MIC during treatment with linezolid,A. baumannii; linezolid […] (Conc./MIC 1/2),1 µg/mL
same,Peptide MIC during treatment with vancomycin,A. baumannii; [9],0.25 µg/mL
same,Peptide MIC during treatment with vancomycin,A. baumannii; [10],0 µg/mL
same,Peptide MIC during treatment with vancomycin,A. baumannii; vancomycin […] (Conc./MIC 1/4),0.5 µg/mL
same,Peptide MIC during treatment with vancomycin,A. baumannii; vancomycin […] (Conc./MIC 1/8),4 µg/mL
same,Peptide MIC during treatment with erythromycin,MDRAB 12035; [5],8 µg/mL
same,Peptide MIC during treatment with erythromycin,MDRAB 12035; [6],8 µg/mL
same,Peptide MIC during treatment with erythromycin,MDRAB 12035; [7],4 µg/mL
same,Peptide MIC during treatment with erythromycin,MDRAB 12035; [8],0 µg/mL
same,Peptide MIC during treatment with linezolid,MDRAB 12035; linezolid 64 μg/ml (Conc./MIC 1/8),4 µg/mL
same,Peptide MIC during treatment with linezolid,MDRAB 12035; linezolid 512 μg/ml (Conc./MIC 1),0 µg/mL
same,Peptide MIC during treatment with linezolid,MDRAB 12035; linezolid […] (Conc./MIC 1/2),1 µg/mL
same,Peptide MIC during treatment with linezolid,MDRAB 12035; linezolid […] (Conc./MIC 1/4),4 µg/mL
same,Peptide MIC during treatment with vancomycin,MDRAB 12035; [9],2 µg/mL
same,Peptide MIC during treatment with vancomycin,MDRAB 12035; [10],1 µg/mL
same,Peptide MIC during treatment with vancomycin,MDRAB 12035; vancomycin […] (Conc./MIC 1/4),4 µg/mL
same,Peptide MIC during treatment with vancomycin,MDRAB 12035; vancomycin […] (Conc./MIC 1/8),4 µg/mL
same,Minimal inhibitory concentration MIC,MDRST 8009,32 µg/mL
same,"Antibiotic MIC, Erythromycin",MDREC 1229 [4]; [11],128 µg/mL
same,"Antibiotic MIC, Linezolid",MDREC 1229 [4]; [11],>128 µg/mL
same,"Antibiotic MIC, Vancomycin",MDREC 1229 [4]; [11],>128 µg/mL
same,"Antibiotic MIC, Erythromycin",MDREC 1229 [4]; [12],64 µg/mL
same,"Antibiotic MIC, Linezolid",MDREC 1229 [4]; [12],>128 µg/mL
same,"Antibiotic MIC, Vancomycin",MDREC 1229 [4]; [12],>128 µg/mL
same,"Antibiotic MIC, Erythromycin",MDREC 1229 [4]; [13],32 µg/mL
same,"Antibiotic MIC, Linezolid",MDREC 1229 [4]; [13],128 µg/mL
same,"Antibiotic MIC, Vancomycin",MDREC 1229 [4]; [13],>128 µg/mL
same,"Antibiotic MIC, Erythromycin",MDREC 1229 [4]; [14],8 µg/mL
same,"Antibiotic MIC, Linezolid",MDREC 1229 [4]; [14],64 µg/mL
same,"Antibiotic MIC, Vancomycin",MDREC 1229 [4]; [14],>128 µg/mL
same,"Antibiotic MIC, Erythromycin",MDREC 1229 [4]; [15],4 µg/mL
same,"Antibiotic MIC, Linezolid",MDREC 1229 [4]; [15],32 µg/mL
same,"Antibiotic MIC, Vancomycin",MDREC 1229 [4]; [15],128 µg/mL
same,"Antibiotic MIC, Erythromycin",MDREC 1229 [4]; [16],2 µg/mL
same,"Antibiotic MIC, Linezolid",MDREC 1229 [4]; [16],16 µg/mL
same,"Antibiotic MIC, Vancomycin",MDREC 1229 [4]; [16],16 µg/mL
same,"Antibiotic MIC, Erythromycin",MDREC 1229 [4]; [17],0 µg/mL
same,"Antibiotic MIC, Linezolid",MDREC 1229 [4]; [17],0 µg/mL
same,"Antibiotic MIC, Vancomycin",MDREC 1229 [4]; [17],0 µg/mL
same,"Antibiotic MIC, Erythromycin",MDREC 1229 [4]; [18],0 µg/mL
same,"Antibiotic MIC, Linezolid",MDREC 1229 [4]; [18],0 µg/mL
same,"Antibiotic MIC, Vancomycin",MDREC 1229 [4]; [18],0 µg/mL
same,Minimal inhibitory concentration MIC,S. typhimurium,32 µg/mL
